These results are taken from patent US12649980B2, “Three-dimensional surface for protein and small molecule microarrays” (The Johns Hopkins University, priority 2019, dated 2026).

SMILES strings stand for the structures.

Data set [1] concerns RKO. The data set can be described thus: Alamar blue cell proliferation assay, RKO. The class given is cell-based, human. The settings on record: 72 h, read-out: IC50 Assay B (Alamar blue cell proliferation). The protocol: The effects of RgA on cell growth, survival, and cell death was then determined. […] Treatment with 5 μM of RgA caused an increase in G1 phase by approximately 23% in comparison to control and approximately 7% and 17% decreases in cells in S and G2/M phases, respectively. The induction in G1 phase cell cycle arrest by RgA is dose-dependent (FIG. 5A, FIG. 16). […] Jones and Thompson, Genes Dev. 2009, 23, 537-548. […] The IC50 values of RgA against several human cancer cell lines also was determined using the alamar blue cell proliferation assay.
Cells were seeded into a 96-well plate (Costar) in 180 μL culture media. After an overnight recovery, drugs were added and incubated for 72 h. After drug incubation, cells were added with 20 μL of alamar blue reagent and the plates were incubated at 37° C. for 6 h before reading the fluorescence (544 nm Ex/590 nm Em) with a plate reader. GraphPad Prism (v4.03) software was used to determine IC50 values using a four parameter logistic regression.

For data set [2], the system named is human red blood cells. The data set can be described thus: [3H]-2DG uptake in human red blood cells. It is filed as cell-based. The conditions noted are these: human red blood cells that exclusively express GLUT1; read-out: IC50 [3H]-2DG uptake into red blood cells. The procedure: (§1) To determine which of the 17 rapafucin hits inhibited the transporter activity of GLUT1, an orthogonal glucose uptake assay using 2-deoxy-D-[3H] glucose ([3H]-2DG), a nonhydrolyzable, radioactive glucose analog, was employed. Each hit was separately incubated with A549 cells for 10 min before the amount of [3H]-2DG taken up by the cells was measured using scintillation counting. […] The effect of JW11-D2 on uptake of [3H]-2DG in human red blood cells that exclusively express GLUT1 was then determined. Helgerson and Carruthers, J. Biol. Chem. 1987, 262, 5464-5475. […] To further improve the potency of JW11-D2, a structure-activity relationship (SAR) study was performed by synthesizing 21 new analogs of JW11-D2 using different amino acid building blocks.
The inhibitory activity of compounds on glucose transport was analyzed by measuring the cell uptake of [3H]-2DG as previously described. Ulanovskaya et al., Chem. Biol. 2011, 18, 222-230. Briefly, cells were washed twice and incubated in low-glucose medium for 10 min. Cells were added drugs and incubated for another 10 min before adding [3H]-2DG. After 10 min incubation with [3H]-2DG, cells were washed twice and lysed with 0.2 N NaOH plus 0.2% SDS. The cell lysate was transferred to a new tube containing 1 mL of optiphase supermix. Glucose uptake was quantified with a scintillation counter.

The test system of data set [3] is sealed erythrocyte membranes. The data set can be described thus: [3H]-2DG uptake in purified sealed erythrocyte membranes. The settings on record: read-out: IC50 [3H]-2DG uptake into sealed erythrocyte membranes. The class given is cell-based, human. The protocol: as §1
In data set [4] the target is FKBP52 (Homo sapiens, UniProt Q02790). The data set can be described thus: peptidyl prolyl cis-trans isomerase activity inhibition, FKBP52. The class given is biochemical. The settings on record: inhibition of prolyl isomerase activity.
Sequence of FKBP52 (Q02790 whole entry, species assumed): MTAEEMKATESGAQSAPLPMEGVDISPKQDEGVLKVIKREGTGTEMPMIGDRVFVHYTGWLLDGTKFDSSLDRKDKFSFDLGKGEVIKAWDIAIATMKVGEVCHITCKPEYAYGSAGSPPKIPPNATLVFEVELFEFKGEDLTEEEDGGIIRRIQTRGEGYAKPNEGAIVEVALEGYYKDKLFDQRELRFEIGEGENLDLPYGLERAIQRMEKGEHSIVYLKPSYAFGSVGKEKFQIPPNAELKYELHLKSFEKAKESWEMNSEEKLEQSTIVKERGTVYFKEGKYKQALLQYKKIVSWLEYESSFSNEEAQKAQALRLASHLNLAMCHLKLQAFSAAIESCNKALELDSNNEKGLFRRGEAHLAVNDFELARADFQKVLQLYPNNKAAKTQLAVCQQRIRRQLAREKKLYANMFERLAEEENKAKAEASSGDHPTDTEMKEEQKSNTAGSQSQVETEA
For data set [5], the system named is HCC1954 xenograft. Kind of data set: HCC1954 breast cancer xenograft in nude mice. It is filed as in vivo. The protocol:
Given that RgA inhibited multiple isoforms of GLUTs, including GLUT1, 3, and 4, it raised the question of whether animals could tolerate RgA. As breast cancer cell lines are more sensitive to RgA than other cell lines (FIG. 6A and Table 3), the anti-breast cancer activity of RgA in vivo was assessed. Two breast cancer cell lines were selected for the xenograft experiment-MCF-7, an ER+, HER2− line, and HCC1954, an ER−, HER2+ breast line. NSG mice bearing MCF-7 tumors were given daily vehicle or RgA at a dose of 2 mg/kg for […].
All animal studies were conducted in compliance with all relevant ethical regulations set forth by the Johns Hopkins University Animal Care and Use Committee (ACUC). Female mice aged 4-6 weeks and weighing 18-22 g were maintained in a pathogen-free facility at Johns Hopkins Medical Institutions and cared for according to National Institutes of Health guidelines and under a protocol approved by the Johns Hopkins University Animal Care Committee. For the xenograft experiment of MCF-7, 17β-estradiol pellets (0.72 mg per pellet, 60-day release, Innovative Research of America, FL) were implanted at 5 days prior to tumor cell injection. […] The tumor volume was measured periodically using a Vernier caliper and calculated according to the modified ellipsoid formula: tumor volume (mm^3)=(short axis)^2×(long axis)×π/6. […]

For orientation: Ki means a measure of affinity in units of concentration, obtained from inhibition or displacement. A high value points to weaker binding. Turning to `CCC(C)C1C(=O)NCC(=O)N(C)CCC=CC(=O)OCC(C)(C)C(=O)C(=O)N2CCCCC2C(=O)OC(CCc2ccc(OC)c(OC)c2)c2cccc(c2)NC(=O)CCC(=O)N(C)C(CC(C)C)C(=O)NC(Cc2ccccc2)C(=O)N1C` (stereo not drawn) [JW11-D2, Rapaglutin A], the IC50 in data set [1] amounted to 114 nM; in data set [2], 34.2 nM; in data set [3], 49.5 nM. In data set [4], this compound showed a Ki of 32 ± 3 nM. Further, the “tumor volume index on day 38” value in data set [5] (HCC1954 in nude mice, 2 mg/kg intraperitoneally daily, vehicle 26.14) is listed as 12.97. Moreover, the “weight loss and signs of adverse effects” value in data set [5] (HCC1954 xenograft mice, 2 mg/kg daily) is on record as “no significant weight loss or any signs of adverse effects”.
